In patent US6555091B1, “Polypeptide capable of reacting with antibodies of patients suffering from multiple sclerosis and uses” (Bio Merieux, priority 1997, dated 2003):
No end group written: not given here.

Test system: IgG of sera from MS patients and healthy individuals
Assay: ELISA of biotinylated synthetic peptides, IgG response of individual human sera
Type: binding
Conditions: for MS sera giving a positive IgG signal compared with the negative serum which gave the highest signal: 1/100 dilutions of 11 sera from MS patients at the remission stage; for MS sera giving a positive IgG signal compared with the negative serum which gave the highest signal / MS sera recognizing the peptide significantly, cut-off mean of negative sera plus 3 times the standard deviation: 4 negative sera; for MS sera recognizing the peptide significantly, cut-off mean of negative sera plus 3 times the standard deviation / BASELINE / MEAN / OD 1 / OD 2 / OD 3 / BASELINE (mark: above cut-off): IgG; for MS sera recognizing the peptide significantly, cut-off mean of negative sera plus 3 times the standard deviation: 1/100 dilutions of 11 MS remission sera; for BASELINE: cut-off, mean of negative sera plus 3 times the standard deviation; for MEAN / OD 1 / OD 2 / OD 3 / BASELINE (mark: above cut-off): 1/100
Procedure: Depending on the information obtained from the preceding examples, the hexapeptides SEQ ID NO: 3 and SEQ ID NO: 4 were synthesized and biotinylated according to the method described in Patent Application No. EP 93420183 with the following modifications: the peptide still bound to the resin is selectively deprotected at the N-terminal position. After overnight incubation with the biotin-NHS at 50% in DMF, the peptide is then cleaved from the resin and treated as described in the patent cited above.
The wells of a Maxisorb (trade name, Nunc) microtiter plate are saturated with 100 μl of a 50 mM NaHCO3 solution, pH 9.6, containing 10 μg/ml of streptavidin for 2 hours at 37° C. The plate is washed with TBS/0.05% Tween 20 buffer. The wells are then saturated with 250 μl of wash buffer supplemented with 10% goat serum for 1 hour at 37° C. and then washed as described above.
The sera to be analyzed are diluted 1/100 in saturation buffer, supplemented with 0.05% Tween 20 and incubated for 2 hours at 37° C. After washing, a solution of peroxidase-labeled anti-human immunoglobulin G goat antibody conjugate (marketed by Jackson Immuno Research Laboratories Inc.) is added at the dilution of 1/10,000 and the plates are incubated for 1 hour at 37° C. After washes, the ortho-phenylenediamine (OPD) substrate is added and the reaction is stopped after 10 minutes by adding 50 μl of H2SO4. The optical density is read at 492 nm.
In a test carried out with 1/100 dilutions of 11 English sera from MS patients at the remission stage and 4 negative English sera, the peptides SEQ ID NOs: 3 and 4 are recognized by 4 sera out of 11 which give a positive IgG signal compared with the negative serum which gave the highest signal.

LQQAVF [SEQ ID NO: 3]
MS sera giving a positive IgG signal compared with the negative serum which gave the highest signal: 4 sera out of 11
MS sera recognizing the peptide significantly, cut-off mean of negative sera plus 3 times the standard deviation: 3 sera out of 11
BASELINE: 815 optical density (×1000)
MEAN (serum 33/6 (MS+, remission)): 587 optical density (×1000)
OD 1 (serum 33/6 (MS+, remission)): 535 optical density (×1000)
OD 2 (serum 33/6 (MS+, remission)): 599 optical density (×1000)
OD 3 (serum 33/6 (MS+, remission)): 626 optical density (×1000)
BASELINE (mark: above cut-off) (serum 33/8 (MS+, remission)): X (the mean of the values obtained with the negative sera is calculated and 3 times the standard deviation is added in order to determine a cut-off)
MEAN (serum 33/8 (MS+, remission)): 1067 optical density (×1000)
OD 1 (serum 33/8 (MS+, remission)): 990 optical density (×1000)
OD 2 (serum 33/8 (MS+, remission)): 941 optical density (×1000)
OD 3 (serum 33/8 (MS+, remission)): 1271 optical density (×1000)
MEAN (serum 33/18 (MS+, remission)): 395 optical density (×1000)
OD 1 (serum 33/18 (MS+, remission)): 601 optical density (×1000)
OD 2 (serum 33/18 (MS+, remission)): 339 optical density (×1000)
OD 3 (serum 33/18 (MS+, remission)): 246 optical density (×1000)
MEAN (serum No. 12 (MS−, healthy)): 639 optical density (×1000)
OD 1 (serum No. 12 (MS−, healthy)): 550 optical density (×1000)
OD 2 (serum No. 12 (MS−, healthy)): 640 optical density (×1000)
OD 3 (serum No. 12 (MS−, healthy)): 726 optical density (×1000)
MEAN (serum No. 13 (MS−, healthy)): 377 optical density (×1000)
OD 1 (serum No. 13 (MS−, healthy)): 366 optical density (×1000)
OD 2 (serum No. 13 (MS−, healthy)): 369 optical density (×1000)
OD 3 (serum No. 13 (MS−, healthy)): 407 optical density (×1000)
MEAN (serum No. 14 (MS−, healthy)): 307 optical density (×1000)
OD 1 (serum No. 14 (MS−, healthy)): 367 optical density (×1000)
OD 2 (serum No. 14 (MS−, healthy)): 285 optical density (×1000)
OD 3 (serum No. 14 (MS−, healthy)): 270 optical density (×1000)
MEAN (serum No. 15 (MS−, healthy)): 452 optical density (×1000)
OD 1 (serum No. 15 (MS−, healthy)): 439 optical density (×1000)
OD 2 (serum No. 15 (MS−, healthy)): 496 optical density (×1000)
OD 3 (serum No. 15 (MS−, healthy)): 422 optical density (×1000)
MEAN (serum QS 2 (MS+, remission)): 309 optical density (×1000)
OD 1 (serum QS 2 (MS+, remission)): 294 optical density (×1000)
OD 2 (serum QS 2 (MS+, remission)): 339 optical density (×1000)
OD 3 (serum QS 2 (MS+, remission)): 293 optical density (×1000)
MEAN (serum QS 3 (MS+, remission)): 727 optical density (×1000)
OD 1 (serum QS 3 (MS+, remission)): 618 optical density (×1000)
OD 2 (serum QS 3 (MS+, remission)): 784 optical density (×1000)
OD 3 (serum QS 3 (MS+, remission)): 779 optical density (×1000)
BASELINE (mark: above cut-off) (serum QS 4 (MS+, remission)): X (the mean of the values obtained with the negative sera is calculated and 3 times the standard deviation is added in order to determine a cut-off)
MEAN (serum QS 4 (MS+, remission)): 1346 optical density (×1000)
OD 1 (serum QS 4 (MS+, remission)): 1161 optical density (×1000)
OD 2 (serum QS 4 (MS+, remission)): 1293 optical density (×1000)
OD 3 (serum QS 4 (MS+, remission)): 1583 optical density (×1000)
MEAN (serum QS 6 (MS+, remission)): 325 optical density (×1000)
OD 1 (serum QS 6 (MS+, remission)): 306 optical density (×1000)
OD 2 (serum QS 6 (MS+, remission)): 263 optical density (×1000)
OD 3 (serum QS 6 (MS+, remission)): 407 optical density (×1000)
BASELINE (mark: above cut-off) (serum QS 7 (MS+, remission)): X (the mean of the values obtained with the negative sera is calculated and 3 times the standard deviation is added in order to determine a cut-off)
MEAN (serum QS 7 (MS+, remission)): 1355 optical density (×1000)
OD 1 (serum QS 7 (MS+, remission)): 1307 optical density (×1000)
OD 2 (serum QS 7 (MS+, remission)): 1298 optical density (×1000)
OD 3 (serum QS 7 (MS+, remission)): 1461 optical density (×1000)
MEAN (serum QS 8 (MS+, remission)): 615 optical density (×1000)
OD 1 (serum QS 8 (MS+, remission)): 664 optical density (×1000)
OD 2 (serum QS 8 (MS+, remission)): 635 optical density (×1000)
OD 3 (serum QS 8 (MS+, remission)): 545 optical density (×1000)
MEAN (serum QS 11 (MS+, remission)): 235 optical density (×1000)
OD 1 (serum QS 11 (MS+, remission)): 429 optical density (×1000)
OD 2 (serum QS 11 (MS+, remission)): 169 optical density (×1000)
OD 3 (serum QS 11 (MS+, remission)): 108 optical density (×1000)
MEAN (serum QS 12 (MS+, remission)): 398 optical density (×1000)
OD 1 (serum QS 12 (MS+, remission)): 405 optical density (×1000)
OD 2 (serum QS 12 (MS+, remission)): 472 optical density (×1000)
OD 3 (serum QS 12 (MS+, remission)): 316 optical density (×1000)

STGRPL [SEQ ID NO: 4]
MS sera giving a positive IgG signal compared with the negative serum which gave the highest signal: 4 sera out of 11
MS sera recognizing the peptide significantly, cut-off mean of negative sera plus 3 times the standard deviation: 3 sera out of 11
BASELINE: 674 optical density (×1000)
MEAN (serum 33/6 (MS+, remission)): 496 optical density (×1000)
OD 1 (serum 33/6 (MS+, remission)): 465 optical density (×1000)
OD 2 (serum 33/6 (MS+, remission)): 496 optical density (×1000)
OD 3 (serum 33/6 (MS+, remission)): 525 optical density (×1000)
BASELINE (mark: above cut-off) (serum 33/8 (MS+, remission)): X (the mean of the values obtained with the negative sera is calculated and 3 times the standard deviation is added in order to determine a cut-off)
MEAN (serum 33/8 (MS+, remission)): 807 optical density (×1000)
OD 1 (serum 33/8 (MS+, remission)): 849 optical density (×1000)
OD 2 (serum 33/8 (MS+, remission)): 820 optical density (×1000)
OD 3 (serum 33/8 (MS+, remission)): 753 optical density (×1000)
MEAN (serum 33/18 (MS+, remission)): 267 optical density (×1000)
OD 1 (serum 33/18 (MS+, remission)): 258 optical density (×1000)
OD 2 (serum 33/18 (MS+, remission)): 243 optical density (×1000)
OD 3 (serum 33/18 (MS+, remission)): 299 optical density (×1000)
MEAN (serum No. 12 (MS−, healthy)): 518 optical density (×1000)
OD 1 (serum No. 12 (MS−, healthy)): 567 optical density (×1000)
OD 2 (serum No. 12 (MS−, healthy)): 518 optical density (×1000)
OD 3 (serum No. 12 (MS−, healthy)): 469 optical density (×1000)
MEAN (serum No. 13 (MS−, healthy)): 271 optical density (×1000)
OD 1 (serum No. 13 (MS−, healthy)): 286 optical density (×1000)
OD 2 (serum No. 13 (MS−, healthy)): 278 optical density (×1000)
OD 3 (serum No. 13 (MS−, healthy)): 268 optical density (×1000)
MEAN (serum No. 14 (MS−, healthy)): 359 optical density (×1000)
OD 1 (serum No. 14 (MS−, healthy)): 322 optical density (×1000)
OD 2 (serum No. 14 (MS−, healthy)): 401 optical density (×1000)
OD 3 (serum No. 14 (MS−, healthy)): 354 optical density (×1000)
MEAN (serum No. 15 (MS−, healthy)): 442 optical density (×1000)
OD 1 (serum No. 15 (MS−, healthy)): 423 optical density (×1000)
OD 2 (serum No. 15 (MS−, healthy)): 432 optical density (×1000)
OD 3 (serum No. 15 (MS−, healthy)): 470 optical density (×1000)
MEAN (serum QS 2 (MS+, remission)): 277 optical density (×1000)
OD 1 (serum QS 2 (MS+, remission)): 267 optical density (×1000)
OD 2 (serum QS 2 (MS+, remission)): 296 optical density (×1000)
OD 3 (serum QS 2 (MS+, remission)): 267 optical density (×1000)
MEAN (serum QS 3 (MS+, remission)): 624 optical density (×1000)
OD 1 (serum QS 3 (MS+, remission)): 668 optical density (×1000)
OD 2 (serum QS 3 (MS+, remission)): 618 optical density (×1000)
OD 3 (serum QS 3 (MS+, remission)): 585 optical density (×1000)
BASELINE (mark: above cut-off) (serum QS 4 (MS+, remission)): X (the mean of the values obtained with the negative sera is calculated and 3 times the standard deviation is added in order to determine a cut-off)
MEAN (serum QS 4 (MS+, remission)): 1026 optical density (×1000)
OD 1 (serum QS 4 (MS+, remission)): 1096 optical density (×1000)
OD 2 (serum QS 4 (MS+, remission)): 1120 optical density (×1000)
OD 3 (serum QS 4 (MS+, remission)): 862 optical density (×1000)
MEAN (serum QS 6 (MS+, remission)): 206 optical density (×1000)
OD 1 (serum QS 6 (MS+, remission)): 204 optical density (×1000)
OD 2 (serum QS 6 (MS+, remission)): 212 optical density (×1000)
OD 3 (serum QS 6 (MS+, remission)): 201 optical density (×1000)
BASELINE (mark: above cut-off) (serum QS 7 (MS+, remission)): X (the mean of the values obtained with the negative sera is calculated and 3 times the standard deviation is added in order to determine a cut-off)
MEAN (serum QS 7 (MS+, remission)): 1380 optical density (×1000)
OD 1 (serum QS 7 (MS+, remission)): 1379 optical density (×1000)
OD 2 (serum QS 7 (MS+, remission)): 1437 optical density (×1000)
OD 3 (serum QS 7 (MS+, remission)): 1323 optical density (×1000)
MEAN (serum QS 8 (MS+, remission)): 552 optical density (×1000)
OD 1 (serum QS 8 (MS+, remission)): 523 optical density (×1000)
OD 2 (serum QS 8 (MS+, remission)): 504 optical density (×1000)
OD 3 (serum QS 8 (MS+, remission)): 630 optical density (×1000)
MEAN (serum QS 11 (MS+, remission)): 269 optical density (×1000)
OD 1 (serum QS 11 (MS+, remission)): 272 optical density (×1000)
OD 2 (serum QS 11 (MS+, remission)): 273 optical density (×1000)
OD 3 (serum QS 11 (MS+, remission)): 261 optical density (×1000)
MEAN (serum QS 12 (MS+, remission)): 237 optical density (×1000)
OD 1 (serum QS 12 (MS+, remission)): 271 optical density (×1000)
OD 2 (serum QS 12 (MS+, remission)): 227 optical density (×1000)
OD 3 (serum QS 12 (MS+, remission)): 212 optical density (×1000)
